pIC50: −log10 of the molar value. Like-named read-outs stand apart in the source and are kept apart here.
Columns and labels:
p110β/p85α = p110β/p85α (Homo sapiens (Human), UniProt P42338); assay: PI 3-Kinase (human) HTRF assay, p110β/p85α; assay type: biochemical
p110α/p85α = p110α/p85α (Homo sapiens (Human), UniProt P42336); assay: PI 3-Kinase (human) HTRF assay, p110α/p85α; assay type: biochemical
p110δ/p85α = p110δ/p85α (Homo sapiens (Human), UniProt O00329); assay: PI 3-Kinase (human) HTRF assay, p110δ/p85α; assay type: biochemical
p110γ = p110γ (Homo sapiens (Human), UniProt P48736); assay: PI 3-Kinase (human) HTRF assay, p110γ; assay type: biochemical
[1] = tested on: tumor cells with a PI3Kα mutation (e.g., MDA-MB-361 and T47D); assay: Proliferation of tumor cells with PI3Kα mutation; assay type: cell-based; conditions: Homo sapiens
[2] = T47D cells, read-out: T47D proliferation
[3] = in vitro, read-out: PI3K β IC50
[4] = in vitro, read-out: PI3K α IC50
[5] = in vitro, read-out: PI3K δ IC50
[6] = T47D cells, read-out: T47D proliferation IC50
[7] = in vitro, read-out: PI3K γ IC50
[8] = PC3, read-out: PC3 proliferation In Vitro IC50

Sequence of p110δ/p85α (O00329 whole entry): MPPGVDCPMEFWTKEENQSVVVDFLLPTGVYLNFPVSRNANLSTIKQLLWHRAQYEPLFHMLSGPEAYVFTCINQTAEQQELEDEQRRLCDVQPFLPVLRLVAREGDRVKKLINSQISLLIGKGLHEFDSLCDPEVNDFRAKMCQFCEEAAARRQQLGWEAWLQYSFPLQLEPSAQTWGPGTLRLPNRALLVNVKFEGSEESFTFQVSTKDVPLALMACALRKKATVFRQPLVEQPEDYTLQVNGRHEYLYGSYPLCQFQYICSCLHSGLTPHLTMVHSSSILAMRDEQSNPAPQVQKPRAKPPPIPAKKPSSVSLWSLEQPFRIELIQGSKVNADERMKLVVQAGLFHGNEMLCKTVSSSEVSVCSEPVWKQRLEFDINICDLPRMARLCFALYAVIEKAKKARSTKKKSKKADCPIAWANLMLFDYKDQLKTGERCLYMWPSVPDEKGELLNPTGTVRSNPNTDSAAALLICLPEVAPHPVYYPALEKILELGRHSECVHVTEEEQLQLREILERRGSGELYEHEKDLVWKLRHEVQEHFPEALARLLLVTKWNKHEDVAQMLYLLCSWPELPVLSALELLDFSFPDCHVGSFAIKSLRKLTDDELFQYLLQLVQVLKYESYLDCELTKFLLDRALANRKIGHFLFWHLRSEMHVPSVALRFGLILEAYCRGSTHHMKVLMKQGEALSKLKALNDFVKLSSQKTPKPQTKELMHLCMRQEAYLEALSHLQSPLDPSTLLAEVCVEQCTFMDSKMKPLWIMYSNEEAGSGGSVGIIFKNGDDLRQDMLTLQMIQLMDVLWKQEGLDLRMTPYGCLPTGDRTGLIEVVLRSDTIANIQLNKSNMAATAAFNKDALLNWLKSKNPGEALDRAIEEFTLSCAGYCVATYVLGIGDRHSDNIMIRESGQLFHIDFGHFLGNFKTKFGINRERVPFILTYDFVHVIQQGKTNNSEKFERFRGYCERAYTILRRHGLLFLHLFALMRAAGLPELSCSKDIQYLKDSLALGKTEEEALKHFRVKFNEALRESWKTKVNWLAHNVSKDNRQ
Sequence of p110δ/p85α (P27986 whole entry partner): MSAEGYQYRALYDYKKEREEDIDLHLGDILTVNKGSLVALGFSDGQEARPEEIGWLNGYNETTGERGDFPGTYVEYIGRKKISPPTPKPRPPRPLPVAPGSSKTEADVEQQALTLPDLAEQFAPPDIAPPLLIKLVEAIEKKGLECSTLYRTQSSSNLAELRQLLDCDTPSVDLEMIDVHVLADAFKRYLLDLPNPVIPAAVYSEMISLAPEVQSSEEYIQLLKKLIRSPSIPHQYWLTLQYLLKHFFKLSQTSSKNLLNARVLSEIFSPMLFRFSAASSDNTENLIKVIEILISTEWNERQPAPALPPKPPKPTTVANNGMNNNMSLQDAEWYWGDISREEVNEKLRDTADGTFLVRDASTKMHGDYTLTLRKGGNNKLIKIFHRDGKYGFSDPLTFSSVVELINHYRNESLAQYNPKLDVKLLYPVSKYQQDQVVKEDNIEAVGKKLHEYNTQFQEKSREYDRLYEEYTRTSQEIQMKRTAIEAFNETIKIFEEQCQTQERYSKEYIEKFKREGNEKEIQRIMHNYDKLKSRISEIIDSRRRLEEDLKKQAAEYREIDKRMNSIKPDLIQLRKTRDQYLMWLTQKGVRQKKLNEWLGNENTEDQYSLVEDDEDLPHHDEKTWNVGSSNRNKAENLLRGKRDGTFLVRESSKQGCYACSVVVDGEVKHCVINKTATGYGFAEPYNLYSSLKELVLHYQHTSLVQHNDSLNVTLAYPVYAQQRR
Sequence of p110α/p85α (P42336 whole entry): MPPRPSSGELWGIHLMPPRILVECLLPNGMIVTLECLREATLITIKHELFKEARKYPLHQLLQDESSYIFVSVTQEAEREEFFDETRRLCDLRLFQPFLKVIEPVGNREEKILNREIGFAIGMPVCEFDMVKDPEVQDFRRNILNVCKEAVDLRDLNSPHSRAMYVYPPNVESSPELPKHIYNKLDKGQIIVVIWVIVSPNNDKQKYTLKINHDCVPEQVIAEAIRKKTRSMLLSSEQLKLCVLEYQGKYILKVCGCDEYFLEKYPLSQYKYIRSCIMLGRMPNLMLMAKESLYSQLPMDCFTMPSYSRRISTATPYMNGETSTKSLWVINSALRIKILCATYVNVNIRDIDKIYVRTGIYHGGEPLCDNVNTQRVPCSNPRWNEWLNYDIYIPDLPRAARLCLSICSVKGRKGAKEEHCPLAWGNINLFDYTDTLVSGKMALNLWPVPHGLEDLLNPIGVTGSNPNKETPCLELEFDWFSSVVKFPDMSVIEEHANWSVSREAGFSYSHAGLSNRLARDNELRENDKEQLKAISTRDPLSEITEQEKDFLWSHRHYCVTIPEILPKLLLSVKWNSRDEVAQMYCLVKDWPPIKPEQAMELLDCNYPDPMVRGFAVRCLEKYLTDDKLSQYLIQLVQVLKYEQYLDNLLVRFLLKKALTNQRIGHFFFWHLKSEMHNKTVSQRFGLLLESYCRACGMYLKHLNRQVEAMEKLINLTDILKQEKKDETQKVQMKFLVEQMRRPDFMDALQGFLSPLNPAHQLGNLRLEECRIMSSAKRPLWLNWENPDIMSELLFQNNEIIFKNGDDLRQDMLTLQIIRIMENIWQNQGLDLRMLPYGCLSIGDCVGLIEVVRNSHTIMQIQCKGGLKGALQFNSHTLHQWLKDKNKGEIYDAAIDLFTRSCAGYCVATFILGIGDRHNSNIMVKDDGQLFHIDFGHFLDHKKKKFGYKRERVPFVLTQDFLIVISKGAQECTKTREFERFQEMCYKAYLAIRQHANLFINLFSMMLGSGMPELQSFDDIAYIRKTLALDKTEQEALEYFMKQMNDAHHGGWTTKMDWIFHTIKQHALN
Sequence of p110α/p85α (P27986 whole entry partner): as the sequence (P27986 whole entry partner) above
Sequence of p110β/p85α (P42338 whole entry): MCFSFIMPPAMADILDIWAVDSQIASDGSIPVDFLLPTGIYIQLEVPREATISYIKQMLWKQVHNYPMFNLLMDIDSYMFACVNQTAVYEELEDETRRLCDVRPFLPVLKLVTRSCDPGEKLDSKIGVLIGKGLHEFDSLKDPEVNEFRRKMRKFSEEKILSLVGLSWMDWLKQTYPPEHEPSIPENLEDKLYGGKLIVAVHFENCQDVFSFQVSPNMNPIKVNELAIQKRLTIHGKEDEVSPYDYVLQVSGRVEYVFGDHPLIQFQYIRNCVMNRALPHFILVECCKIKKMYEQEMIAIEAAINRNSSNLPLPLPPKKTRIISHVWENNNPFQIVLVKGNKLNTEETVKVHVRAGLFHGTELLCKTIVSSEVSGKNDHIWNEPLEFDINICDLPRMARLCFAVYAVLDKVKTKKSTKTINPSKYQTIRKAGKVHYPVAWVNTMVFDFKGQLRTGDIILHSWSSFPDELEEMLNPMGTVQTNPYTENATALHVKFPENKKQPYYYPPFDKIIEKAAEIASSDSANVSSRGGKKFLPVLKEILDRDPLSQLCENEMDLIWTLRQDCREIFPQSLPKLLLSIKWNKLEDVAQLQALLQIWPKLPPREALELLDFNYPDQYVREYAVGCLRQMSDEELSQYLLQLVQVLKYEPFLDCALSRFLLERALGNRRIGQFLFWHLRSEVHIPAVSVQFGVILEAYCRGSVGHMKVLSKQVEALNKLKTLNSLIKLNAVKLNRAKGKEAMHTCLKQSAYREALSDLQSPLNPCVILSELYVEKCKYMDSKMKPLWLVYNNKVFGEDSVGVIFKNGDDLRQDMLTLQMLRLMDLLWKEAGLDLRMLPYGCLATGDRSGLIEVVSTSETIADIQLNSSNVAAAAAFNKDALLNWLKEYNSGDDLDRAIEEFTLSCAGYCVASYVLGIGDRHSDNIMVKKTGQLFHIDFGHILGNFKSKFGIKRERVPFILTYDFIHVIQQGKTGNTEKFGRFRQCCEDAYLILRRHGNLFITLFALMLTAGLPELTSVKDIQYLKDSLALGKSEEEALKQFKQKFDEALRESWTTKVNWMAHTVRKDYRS
Sequence of p110β/p85α (P27986 whole entry partner): as the sequence (P27986 whole entry partner) above
Sequence of p110γ (P48736 whole entry): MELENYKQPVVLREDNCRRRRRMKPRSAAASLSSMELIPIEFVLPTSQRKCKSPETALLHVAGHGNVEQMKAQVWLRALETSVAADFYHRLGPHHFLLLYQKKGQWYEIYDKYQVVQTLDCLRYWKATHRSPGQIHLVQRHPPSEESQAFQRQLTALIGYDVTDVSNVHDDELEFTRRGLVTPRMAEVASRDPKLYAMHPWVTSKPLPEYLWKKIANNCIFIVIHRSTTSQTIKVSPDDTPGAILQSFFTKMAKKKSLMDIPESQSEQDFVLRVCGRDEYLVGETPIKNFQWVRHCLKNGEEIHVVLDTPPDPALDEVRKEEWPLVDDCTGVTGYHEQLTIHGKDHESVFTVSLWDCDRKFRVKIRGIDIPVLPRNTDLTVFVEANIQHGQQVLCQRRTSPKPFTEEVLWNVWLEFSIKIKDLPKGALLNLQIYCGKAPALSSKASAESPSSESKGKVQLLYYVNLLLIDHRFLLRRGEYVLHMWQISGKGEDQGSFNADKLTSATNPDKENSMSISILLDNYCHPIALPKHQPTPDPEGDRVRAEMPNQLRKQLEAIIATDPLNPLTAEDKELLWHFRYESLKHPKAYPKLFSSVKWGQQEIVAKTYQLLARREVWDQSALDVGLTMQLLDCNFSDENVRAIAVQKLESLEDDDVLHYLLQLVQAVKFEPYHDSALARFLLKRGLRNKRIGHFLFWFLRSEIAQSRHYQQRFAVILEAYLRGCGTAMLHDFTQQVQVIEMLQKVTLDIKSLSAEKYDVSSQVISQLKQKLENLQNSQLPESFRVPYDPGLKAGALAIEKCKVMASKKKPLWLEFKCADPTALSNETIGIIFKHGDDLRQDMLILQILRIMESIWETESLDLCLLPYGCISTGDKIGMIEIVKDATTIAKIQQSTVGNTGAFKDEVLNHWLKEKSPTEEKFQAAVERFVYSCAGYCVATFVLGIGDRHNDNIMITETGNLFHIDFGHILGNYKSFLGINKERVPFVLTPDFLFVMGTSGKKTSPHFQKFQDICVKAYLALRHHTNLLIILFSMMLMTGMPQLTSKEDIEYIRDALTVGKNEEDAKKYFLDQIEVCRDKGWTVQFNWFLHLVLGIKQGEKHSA

Row | SMILES | pIC50 (p110β/p85α; read-out: PI3K β IC50) | pIC50 (p110α/p85α; read-out: PI3K α IC50) | pIC50 (p110δ/p85α; read-out: PI3K δ IC50) | pIC50 (p110γ; read-out: PI3K γ IC50) | pIC50 [1, 2] | also measured
1 | Nc1noc2cc(-c3ccc4nccc(-c5ccncc5)c4c3)ccc12 [compound 16] | > 5.00 | > 7.00 | > 5.00 | > 6.00 | > 6.00 | 
2 | CN1CCN(c2ccc(-c3cnc4ccc(-c5ccc6oc(N)nc6c5)cn34)cn2)CC1 [compound 42] |  | > 7.00 | > 6.00 | > 6.00 | > 5.00 | 
3 | Nc1nc2cc(-c3ccc4ncc(-c5ccc6nc(N)oc6c5)n4c3)ccc2o1 [compound 50] |  | > 7.00 | > 5.00 | > 7.00 | > 5.00 | 
4 | CN1CCN(c2cnc3ccc(-c4ccc5oc(N)nc5c4)cc3n2)CC1 [compound 65] | > 7.00 | > 7.00 | > 5.00 | > 6.00 | > 5.00 | 
5 | CC(C)N1CCN(c2cnc3ccc(-c4ccc5oc(N)nc5c4)cc3n2)CC1 [compound 84] | > 7.00 | > 7.00 | > 6.00 | > 7.00 | > 5.00 | 
6 | Nc1nc2cc(-c3ccc4ncc(N5CCNCC5)nc4c3)ccc2o1 [compound 88] | > 7.00 | > 7.00 | > 5.00 | > 6.00 | > 5.00 | 
7 | CS(=O)(=O)CCN1CCN(c2cnc3ccc(-c4ccc5oc(N)nc5c4)cc3n2)CC1 [compound 90] | > 6.00 | > 7.00 | > 5.00 | > 6.00 | > 6.00 | 
8 | Nc1nc2cc(-c3ccc4ncc(NC5CCOCC5)nc4c3)ccc2o1 [compound 96] | > 5.00 | > 7.00 | > 6.00 | > 7.00 | > 6.00 | 
9 | Nc1nc2cc(-c3ccc4ncc(N5CCC(O)CC5)nc4c3)ccc2o1 [compound 99] | > 5.00 | > 7.00 | > 6.00 | > 6.00 | > 5.00 | 
10 | Nc1nc2cc(-c3ccc4ncc(N5CCN(CCO)CC5)nc4c3)ccc2o1 [compound 100] | > 7.00 | > 7.00 | > 5.00 | > 6.00 | > 6.00 | 
11 | CC(C)N1CCC(Nc2ncnc3ccc(-c4ccc5oc(N)nc5c4)cc23)CC1 [compound 101] | > 5.00 | > 7.00 | > 6.00 | > 5.00 | > 5.00 | 
12 | CN(C)CC(=O)N1CCC(Nc2ncnc3ccc(-c4ccc5oc(N)nc5c4)cc23)CC1 [compound 103] | > 6.00 | > 7.00 | > 6.00 | > 6.00 | > 5.00 | 
13 | CS(=O)(=O)N1CCN(C(=O)c2cnc3ccc(-c4ccc5oc(N)nc5c4)cn23)CC1 [compound 112] |  | > 7.00 | > 5.00 | > 6.00 | > 6.00 | 
14 | CNC(=O)CN1CCN(c2cnc3ccc(-c4ccc5oc(N)nc5c4)cc3n2)CC1 [compound 120] | > 6.00 | > 7.00 | > 5.00 |  | > 6.00 | 
15 | Nc1nc2cc(-c3ccc4ncc(N5CCN(C(=O)[C@@H]6CCCN6)CC5)nc4c3)ccc2o1 [compound 121] | > 7.00 | > 7.00 | > 7.00 | > 7.00 | > 6.00 | 
16 | Nc1nc2cc(-c3ccc4ncc(NCCN5CCOCC5)nc4c3)ccc2o1 [compound 133] | > 6.00 | > 7.00 | > 6.00 | > 6.00 | > 5.00 | 
17 | CC(N)C(=O)N1CCN(c2cnc3ccc(-c4ccc5oc(N)nc5c4)cc3n2)CC1 (stereo not shown) [compound 134] | > 6.00 | > 7.00 | > 6.00 | > 5.00 | > 6.00 | 
18 | CC(=O)N1CCC(N(C)c2ncnc3ccc(-c4ccc5oc(N)nc5c4)cc23)CC1 [compound 137] | > 6.00 | > 7.00 | > 6.00 | > 6.00 | > 6.00 | 
19 | CN(C)CC(=O)N1CCN(c2cnc3ccc(-c4ccc5oc(N)nc5c4)cc3n2)CC1 [compound 139] | > 6.00 | > 7.00 | > 6.00 | > 6.00 | > 6.00 | 
20 | CCN1CCN(c2cnc3ccc(-c4ccc5oc(N)nc5c4)cc3n2)CC1 [compound 152] | > 7.00 | > 7.00 | > 5.00 | > 6.00 | > 5.00 | 
21 | Nc1nc2cc(-c3ccc4ncc(N5CCN(CC6CC6)CC5)nc4c3)ccc2o1 [compound 153] | > 7.00 | > 7.00 | > 6.00 | > 6.00 | > 6.00 | 
22 | CNC(=O)N1CCN(c2cnc3ccc(-c4ccc5oc(N)nc5c4)cc3n2)CC1 [compound 154] | > 6.00 | > 7.00 | > 5.00 | > 7.00 | > 6.00 | 

Row | SMILES | pIC50 (p110β/p85α; read-out: PI3K β IC50) | pIC50 (p110α/p85α; read-out: PI3K α IC50) | pIC50 (p110δ/p85α; read-out: PI3K δ IC50) | pIC50 (p110γ; read-out: PI3K γ IC50) | pIC50 [1, 2] | also measured
23 | CN1CC(C(=O)N2CCN(c3cnc4ccc(-c5ccc6oc(N)nc6c5)cc4n3)CC2)C1 [compound 156] | > 6.00 | > 7.00 | > 6.00 | > 6.00 | > 6.00 | 
24 | CN1CCC(NC(=O)c2cnc3ccc(-c4ccc5oc(N)nc5c4)cn23)CC1 [compound 159] | > 6.00 | > 7.00 | > 7.00 | > 6.00 | > 5.00 | 
25 | Nc1nc2cc(-c3ccc4ncc(N5CCC(N)CC5)nc4c3)ccc2o1 [compound 168] | > 6.00 | > 7.00 | > 5.00 |  | > 5.00 | 
26 | Nc1nc2cc(-c3ccc4ncc(N5CCC(N6CCOCC6)CC5)nc4c3)ccc2o1 [compound 171] | > 6.00 | > 7.00 | > 6.00 | > 6.00 | > 6.00 | 
27 | CC1CN(c2cnc3ccc(-c4ccc5oc(N)nc5c4)cc3n2)CCO1 (stereo not shown) [compound 173] | > 6.00 | > 7.00 | > 5.00 | > 7.00 | > 5.00 | 
28 | Cc1nccn1-c1cnc2ccc(-c3ccc4oc(N)nc4c3)cc2n1 [compound 174] | > 6.00 | > 7.00 | > 5.00 | > 7.00 | > 5.00 | 
29 | Nc1nc2cc(-c3ccc4ncc(N5CCCC5)nc4c3)ccc2o1 [compound 176] | > 6.00 | > 7.00 | > 6.00 | > 7.00 | > 6.00 | 
30 | C[C@@H]1CN(c2cnc3ccc(-c4ccc5oc(N)nc5c4)cc3n2)CCN1 [compound 179] | > 6.00 | > 7.00 | > 5.00 | > 5.00 | > 5.00 | 
31 | CS(=O)(=O)CCN1CCC(Nc2cnc3ccc(-c4ccc5oc(N)nc5c4)cc3n2)CC1 [compound 181] | > 5.00 | > 7.00 | > 6.00 | > 7.00 | > 5.00 | 
32 | CC(C)(C)N1CCN(c2cnc3ccc(-c4ccc5oc(N)nc5c4)cc3n2)CC1 [compound 182] | > 6.00 | > 7.00 | > 6.00 | > 6.00 | > 5.00 | 
33 | CCn1cnc2ccc(-c3ccc4oc(N)nc4c3)cc2c1=O [compound 183] | > 5.00 | > 7.00 | > 5.00 | > 7.00 | > 5.00 | 
34 | Nc1nc2cc(-c3ccc4ncc(C(=O)N5CCCC5)n4c3)ccc2o1 [compound 186] | > 5.00 | > 7.00 | > 6.00 | > 7.00 | > 5.00 | 
35 | Nc1nc2cc(-c3ccc4ncc(C(=O)NC5CC5)n4c3)ccc2o1 [compound 187] | > 5.00 | > 7.00 | > 6.00 | > 7.00 | > 6.00 | 
36 | CCNC(=O)c1cnc2ccc(-c3ccc4oc(N)nc4c3)cn12 [compound 188] | > 6.00 | > 7.00 | > 6.00 | > 7.00 | > 6.00 | 
37 | Nc1nc2cc(-c3ccc4ncc(C(=O)NCCO)n4c3)ccc2o1 [compound 189] | > 6.00 | > 7.00 | > 6.00 | > 6.00 | > 6.00 | 
38 | CC(C)(N)C(=O)N1CCN(c2cnc3ccc(-c4ccc5oc(N)nc5c4)cc3n2)CC1 [compound 213] |  |  |  |  |  | pIC50 (p110β/p85α; [3]): > 6.00; pIC50 (p110α/p85α; [4]): > 7.00; pIC50 (p110δ/p85α; [5]): > 6.00; pIC50 [1, 6]: > 6.00
39 | Cc1ccc(NC(=O)c2cnc3ccc(-c4ccc5oc(N)nc5c4)cn23)cn1 [compound 294] |  |  |  |  |  | pIC50 (p110α/p85α; [4]): > 7.00; pIC50 (p110δ/p85α; [5]): > 5.00; pIC50 (p110γ; [7]): > 7.00; pIC50 [1, 6]: > 5.00
40 | Nc1nc2cc(-c3ccc4ncc(N5CC(N6CCN(CC7CC7)CC6)C5)nc4c3)ccc2o1 [compound 335] |  |  |  |  |  | pIC50 (p110β/p85α; [3]): > 5.00; pIC50 (p110α/p85α; [4]): > 7.00; pIC50 (p110δ/p85α; [5]): > 5.00; pIC50 [1, 6]: > 6.00
41 | Nc1nc2cc(-c3ccc4ncc(N5CC(N6CCC(O)CC6)C5)nc4c3)ccc2o1 [compound 341] |  |  |  |  |  | pIC50 (p110α/p85α; [4]): > 6.00; pIC50 (p110δ/p85α; [5]): > 5.00; pIC50 (p110γ; [7]): > 5.00; pIC50 [1, 6]: > 5.00
42 | Nc1nc2cc(-c3ccc4ncc(C(=O)N5C6CCC5COC6)n4c3)ccc2o1 [compound 480] |  |  |  |  |  | pIC50 (p110α/p85α; read-out: PI3K α In Vitro IC50): > 7.00; pIC50 (p110δ/p85α; read-out: PI3K δ In Vitro IC50): > 5.00; pIC50 (p110γ; read-out: PI3K γ In Vitro IC50): > 6.00; pIC50 [1, 8]: > 6.00
43 | C[C@H]1COCCN1C(=O)c1cnc2ccc(-c3ccc4oc(N)nc4c3)cn12 [compound 483] |  |  |  |  |  | pIC50 (p110β/p85α; read-out: PI3K β In Vitro IC50): > 5.00; pIC50 (p110α/p85α; read-out: PI3K α In Vitro IC50): > 7.00; pIC50 (p110γ; read-out: PI3K γ In Vitro IC50): > 5.00; pIC50 [1, 8]: > 5.00
44 | CN1CCC(n2cnc3ccc(-c4cnc(Cl)c(NS(C)(=O)=O)c4)cc3c2=O)CC1 [compound 526] |  |  |  |  |  | pIC50 (p110β/p85α; read-out: PI3K β In Vitro IC50): > 5.00; pIC50 (p110α/p85α; read-out: PI3K α In Vitro IC50): > 7.00; pIC50 (p110δ/p85α; read-out: PI3K δ In Vitro IC50): > 6.00; pIC50 [1, 8]: > 5.00
